Data as given in patent publication US8778919B2, “Cyclic anilino—pyridinotriazines” (Janssen Pharmaceutica NV, priority 2005, dated 2014).

Experiments:
Type in all cases: biochemical
[1] = target: CDK7/cyclinH/MAT1 (h) (Homo sapiens, UniProt P50613); assay: Kinase profiling C3.8 CDK7/cyclinH/MAT1 human; details: CDK7/cyclinH/MAT1, test concentration of 10^−6 M
How it was run: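 Human CDK7/cyclinH/MAT1 (5-10 mU) incubated 40 min at room temperature in 8 mM MOPS pH 7.0, 0.2 mM EDTA, 10 mM Mg acetate, 500 μM peptide substrate and [γ-^33P]ATP. Stopped with phosphoric acid; substrate phosphorylation measured by filter binding and scintillation counting.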

[2] = target: CDK1/cyclinB (h) (Homo sapiens, UniProt P06493); assay: Kinase profiling C3.2 CDK1/cyclinB human; details: test concentration of 10^−6 M
Sequence of CDK1/cyclinB (h) (P06493 whole entry): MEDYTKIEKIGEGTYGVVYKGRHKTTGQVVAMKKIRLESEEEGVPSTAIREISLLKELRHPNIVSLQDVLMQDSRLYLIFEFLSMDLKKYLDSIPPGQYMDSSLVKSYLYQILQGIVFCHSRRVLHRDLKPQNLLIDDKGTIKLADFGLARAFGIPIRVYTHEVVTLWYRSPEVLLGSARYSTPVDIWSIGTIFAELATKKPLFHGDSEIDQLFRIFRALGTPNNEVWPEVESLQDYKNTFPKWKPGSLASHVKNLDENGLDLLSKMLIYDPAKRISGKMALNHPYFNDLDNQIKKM
Sequence of CDK1/cyclinB (h) (P14635 whole entry partner): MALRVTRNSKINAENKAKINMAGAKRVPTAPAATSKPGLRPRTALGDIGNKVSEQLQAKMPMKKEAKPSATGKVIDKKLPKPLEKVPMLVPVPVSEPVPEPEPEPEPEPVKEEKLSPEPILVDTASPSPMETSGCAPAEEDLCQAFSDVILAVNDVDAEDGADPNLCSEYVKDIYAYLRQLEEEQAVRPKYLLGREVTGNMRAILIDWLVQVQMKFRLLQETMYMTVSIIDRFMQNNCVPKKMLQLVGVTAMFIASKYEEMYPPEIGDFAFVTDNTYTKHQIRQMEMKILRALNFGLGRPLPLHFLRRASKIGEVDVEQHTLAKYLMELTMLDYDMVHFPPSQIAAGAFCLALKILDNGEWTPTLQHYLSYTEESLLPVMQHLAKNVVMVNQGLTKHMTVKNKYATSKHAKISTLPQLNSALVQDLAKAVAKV
How it was run: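 Radiometric filter-binding assay: human CDK1/cyclinB (5-10 mU) with 0.1 mg/ml histone H1 substrate and [γ-33P]ATP in 8 mM MOPS pH 7.0, 10 mM Mg acetate, 40 min at room temperature. Stopped with phosphoric acid; substrate-bound 33P counted on P30 filtermat by scintillation.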

[3] = target: CDK3/cyclinE (h) (Homo sapiens, UniProt Q00526); assay: Kinase profiling C3.5 CDK3/cyclinE human; details: test concentration of 10^−6 M
Sequence of CDK3/cyclinE (h) (Q00526 whole entry): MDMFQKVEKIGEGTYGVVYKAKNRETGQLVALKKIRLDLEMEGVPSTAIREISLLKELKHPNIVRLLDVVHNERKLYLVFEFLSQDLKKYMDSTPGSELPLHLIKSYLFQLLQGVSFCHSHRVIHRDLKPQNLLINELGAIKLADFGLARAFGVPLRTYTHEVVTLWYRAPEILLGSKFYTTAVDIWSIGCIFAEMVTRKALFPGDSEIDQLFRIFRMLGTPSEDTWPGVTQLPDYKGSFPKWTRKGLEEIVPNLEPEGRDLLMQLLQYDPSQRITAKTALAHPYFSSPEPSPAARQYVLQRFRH
Sequence of CDK3/cyclinE (h) (P24864 whole entry partner): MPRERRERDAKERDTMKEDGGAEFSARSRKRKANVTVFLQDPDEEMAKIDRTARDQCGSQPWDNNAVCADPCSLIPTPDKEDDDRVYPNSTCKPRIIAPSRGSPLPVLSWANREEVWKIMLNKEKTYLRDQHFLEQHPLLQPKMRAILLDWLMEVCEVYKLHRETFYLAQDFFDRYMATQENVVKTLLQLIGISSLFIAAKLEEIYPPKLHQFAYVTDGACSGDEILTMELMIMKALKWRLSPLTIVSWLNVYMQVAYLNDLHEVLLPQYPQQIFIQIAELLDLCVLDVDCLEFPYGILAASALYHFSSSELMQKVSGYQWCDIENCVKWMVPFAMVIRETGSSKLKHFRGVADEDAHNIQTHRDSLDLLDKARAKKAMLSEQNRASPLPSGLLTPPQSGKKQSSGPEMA
How it was run: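 Human CDK3/cyclinE (5-10 mU) phosphorylated 0.1 mg/ml histone H1 in 8 mM MOPS pH 7.0, 0.2 mM EDTA and 10 mM MgAcetate with [γ-33P]ATP. Reaction ran 40 min at room temperature and was stopped with phosphoric acid. Substrate-bound radioactivity was captured on P30 filtermat and measured by scintillation counting.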

[4] = target: CDK5/p35 human (Homo sapiens, UniProt Q00535); assay: Kinase profiling C3.6 CDK5/p35 human; details: CDK5/p35, test concentration of 10^−6 M
Sequence of CDK5/p35 human (Q00535 whole entry): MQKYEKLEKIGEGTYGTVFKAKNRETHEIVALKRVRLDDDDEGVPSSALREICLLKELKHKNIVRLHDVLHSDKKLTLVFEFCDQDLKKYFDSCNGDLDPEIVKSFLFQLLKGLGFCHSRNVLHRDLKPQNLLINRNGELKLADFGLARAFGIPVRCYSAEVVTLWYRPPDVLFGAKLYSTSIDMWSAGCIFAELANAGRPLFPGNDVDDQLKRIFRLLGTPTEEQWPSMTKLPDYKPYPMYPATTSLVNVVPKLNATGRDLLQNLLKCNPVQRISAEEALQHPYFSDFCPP
Sequence of CDK5/p35 human (Q15078 whole entry partner): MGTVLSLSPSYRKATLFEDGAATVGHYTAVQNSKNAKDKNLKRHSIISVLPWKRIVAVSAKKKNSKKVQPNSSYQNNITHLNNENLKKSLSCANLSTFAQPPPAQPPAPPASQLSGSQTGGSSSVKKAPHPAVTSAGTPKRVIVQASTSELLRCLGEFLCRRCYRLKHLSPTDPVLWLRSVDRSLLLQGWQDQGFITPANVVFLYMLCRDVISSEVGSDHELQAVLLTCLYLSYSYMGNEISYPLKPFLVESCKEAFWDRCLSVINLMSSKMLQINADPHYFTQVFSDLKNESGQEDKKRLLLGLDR
How it was run: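 Radiometric filter-binding assay: human CDK5/p35 (5-10 mU) with 0.1 mg/ml histone H1 substrate in 8 mM MOPS pH 7.0, 0.2 mM EDTA, 10 mM Mg acetate and [γ-33P]ATP. Incubated 40 min at room temperature, stopped with phosphoric acid. Substrate 33P incorporation counted on P30 filtermat by scintillation.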

[5] = target: GSK-3α (Homo sapiens, UniProt P49840); assay: GSK-3 kinase assay (C1), GSK-3α; details: 1 μM ATP, read-out: C1 Score α
Sequence of GSK-3α (P49840 whole entry, species assumed): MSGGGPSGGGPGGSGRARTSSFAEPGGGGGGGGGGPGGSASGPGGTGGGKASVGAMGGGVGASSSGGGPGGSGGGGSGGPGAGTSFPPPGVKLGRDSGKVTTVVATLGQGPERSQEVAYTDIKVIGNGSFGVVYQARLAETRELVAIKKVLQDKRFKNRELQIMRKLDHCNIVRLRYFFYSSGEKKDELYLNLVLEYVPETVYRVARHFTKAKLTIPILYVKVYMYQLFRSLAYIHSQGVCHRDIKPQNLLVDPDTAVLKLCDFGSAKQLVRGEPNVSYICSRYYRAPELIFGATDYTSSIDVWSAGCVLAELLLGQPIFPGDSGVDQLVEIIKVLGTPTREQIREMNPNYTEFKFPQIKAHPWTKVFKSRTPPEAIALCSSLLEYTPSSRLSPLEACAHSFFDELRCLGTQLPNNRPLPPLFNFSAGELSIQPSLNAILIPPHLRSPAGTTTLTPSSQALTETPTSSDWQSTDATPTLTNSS
How it was run: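 Radiometric SPA at room temperature in 25 mM Tris pH 7.4 with 10 mM MgCl2, 1 mM DTT, 5.7 ng/μl GSK-3β or 0.25 ng/μl GSK-3α, 5 μM biotinylated CREB peptide and 1 μM ATP plus ^33P-ATP. Stopped after 1 h; IC50 from dose-response versus no-compound control, reported as pIC50 score bands.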

[6] = target: CDK2/cyclinA (h) (Homo sapiens, UniProt P24941); assay: Kinase profiling C3.3 CDK2/cyclinA human; details: test concentration of 10^−6 M
How it was run: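 Human CDK2/cyclinA (5-10 mU) phosphorylates 0.1 mg/ml histone H1 in 8 mM MOPS pH 7.0, EDTA, 10 mM Mg acetate with [γ-33P]ATP, 40 min at room temperature. After phosphoric acid stop, filter-bound 33P counted by scintillation.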

Sequence of CDK7/cyclinH/MAT1 (h) (P50613 whole entry): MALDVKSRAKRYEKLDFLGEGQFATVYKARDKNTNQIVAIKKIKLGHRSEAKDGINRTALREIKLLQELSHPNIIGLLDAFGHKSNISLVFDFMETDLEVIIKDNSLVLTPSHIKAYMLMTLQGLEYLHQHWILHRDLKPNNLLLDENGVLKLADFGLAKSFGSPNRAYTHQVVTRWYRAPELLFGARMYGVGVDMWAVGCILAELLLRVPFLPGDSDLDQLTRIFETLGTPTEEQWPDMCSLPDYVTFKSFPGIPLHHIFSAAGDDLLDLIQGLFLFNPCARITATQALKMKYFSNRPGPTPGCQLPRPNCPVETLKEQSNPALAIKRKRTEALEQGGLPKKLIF
Sequence of CDK7/cyclinH/MAT1 (h) (P51946 whole entry partner): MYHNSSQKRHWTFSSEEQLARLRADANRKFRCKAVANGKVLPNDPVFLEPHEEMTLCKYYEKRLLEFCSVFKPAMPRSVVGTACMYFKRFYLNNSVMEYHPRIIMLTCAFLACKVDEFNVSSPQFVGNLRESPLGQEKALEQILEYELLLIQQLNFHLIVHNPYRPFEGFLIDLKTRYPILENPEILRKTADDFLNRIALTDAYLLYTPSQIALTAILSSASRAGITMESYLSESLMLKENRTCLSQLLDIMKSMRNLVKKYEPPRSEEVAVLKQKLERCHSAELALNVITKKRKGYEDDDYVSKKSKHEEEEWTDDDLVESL
Sequence of CDK7/cyclinH/MAT1 (h) (P51948 whole entry partner): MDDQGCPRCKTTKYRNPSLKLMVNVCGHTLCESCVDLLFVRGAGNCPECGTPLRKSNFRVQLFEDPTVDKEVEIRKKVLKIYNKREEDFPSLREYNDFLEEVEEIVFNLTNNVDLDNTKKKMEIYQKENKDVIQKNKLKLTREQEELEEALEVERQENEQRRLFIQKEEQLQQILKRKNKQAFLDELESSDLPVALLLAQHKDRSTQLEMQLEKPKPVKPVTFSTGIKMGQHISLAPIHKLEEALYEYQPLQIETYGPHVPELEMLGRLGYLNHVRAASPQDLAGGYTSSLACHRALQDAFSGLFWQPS

Structure (SMILES) | C3.8 score [1] | C3.2 score [2] | C3.5 score [3] | C3.6 score [4] | IC50 [5] [nM] | C3.3 score [6]
O=C1NCCCc2cc(ccc2F)-c2ncnc(n2)Nc2cc(Cl)cc(c2)CN[C@H]1CO [Compound 71] | 4 (Score 4 = >80% inhibition) | 4 (Score 4 = >80% inhibition) | 4 (Score 4 = >80% inhibition) | 4 (Score 4 = >80% inhibition) | < 10 | 2 (Score 2 = 30-60% inhibition)
O=C1NCCCc2cncc(c2)-c2ncnc(n2)Nc2cccc(c2)CN[C@H]1CO [Compound 81] | 1 (Score 1 = 10-30% inhibition) | 4 (Score 4 = >80% inhibition) | 3 (Score 3 = 60-80% inhibition) | 3 (Score 3 = 60-80% inhibition) | < 10 | 3 (Score 3 = 60-80% inhibition)
